Results reported in patent US20040038369A1, “Airway-specific trypsin-like enzymes and method of using the same” (priority 2000, published 2004).
Structures can show the parent of a compound that is named as a salt.

Key:
[1] = target: T1, recombinant AST (Homo sapiens, UniProt O60235); experiment: AST-inhibiting activity of compound; assay type: biochemical; conditions: substrate Boc-Phe-Ser-Arg-MCA, 24° C., 6 minutes
T1 construct: 232 amino acids from Ile at the 187th position to Ile at the 418th position; made in house; host or cells: insect cells (Tn-5), recombinant baculovirus
T1 sequence (O60235 187-418): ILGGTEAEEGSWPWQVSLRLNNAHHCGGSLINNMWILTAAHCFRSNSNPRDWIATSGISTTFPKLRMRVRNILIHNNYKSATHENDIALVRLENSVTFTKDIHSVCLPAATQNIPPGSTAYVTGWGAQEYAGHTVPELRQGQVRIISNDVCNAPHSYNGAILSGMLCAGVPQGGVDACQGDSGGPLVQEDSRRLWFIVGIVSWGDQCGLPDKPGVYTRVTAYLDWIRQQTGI
T1 sequence (O60235 162-186 partner limits assumed): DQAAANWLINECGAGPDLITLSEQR
Method: 0.05 mL of a 50 mM Tris-HCl buffer solution (pH 8.6) containing 2 ng/mL of the recombinant AST and 0.01% of Tween 20 was mixed with 2 μL of a DMSO solution containing nafamostat mesylate or gabexate mesylate as an evaluation target compound in various concentrations, and with 0.05 mL of a 50 mM Tris-HCl buffer solution (pH 8.6) containing 30 μM of a trypsin synthesis substrate: Boc-Phe-Ser-Arg-MCA, and incubated at 24° C. for 6 minutes. The quantities of the produced AMC were assayed by a fluorometry (fluorescent light: 460 nm, exciting light: 380 nm) with the passage of time, and the enzymatic activity-inhibiting ability of the compound was evaluated.

[2] = tested on: normal human airway epithelial cells; experiment: Calcium influx in normal human airway epithelial cells; assay type: cell-based; conditions: AST 2 units/mL; trypsin 10 to 100 units/mL; SFLLRNamide 100 μM
Method: The Ca^2+ influx due to the AST was examined with confluent normal epithelial cells adhered to three 10 cm dishes (purchased from BioWhittaker Corp.). The cells were peeled with a 10 mM EDTA/HEPES-Tyrode buffer solution for 10 minutes, recovered by a centrifugal treatment at 800 rpm at room temperature for 5 minutes, and then resuspended in 5 mL of HEPES-Tyrode buffer solution-Ca^2+ (−) pH 7.4. The recovered cells (about 1.2×10^6 cells) were suspended in 5 mL of HEPES-Tyrode buffer solution (1 μg/mL, containing Fura2-AM) to load the Fura2-AM to the cells at 37° C. for one hour. The cells were recovered by a centrifugal treatment at 800 rpm at room temperature for 5 minutes, twice washed with HEPES-Tyrode buffer solution-Ca^2+ (−) pH 7.4, and then resuspended in […] of HEPES-Tyrode buffer solution-Ca^2+ (−) pH 7.4. The cell suspension was mixed with 5 μL of 1M CaCl2 to give a final concentration of 1 mM CaCl2, and then incubated in a shaded state at room temperature for 5 minutes. The prepared Fura2-AM-loaded infected cells were dispensed into a 96 well plate in a volume of 100 μL/well, further subjected to the dispensation of HEPES-Tyrode buffer solution-Ca^2+ (+) pH 7.4 in a volume of 80 μL/well, and then assayed with Fluorescence Drug Screening System (Hamamatsu Photonics Co.). […]

[3] = target: T2, PAR-2 (Homo sapiens, UniProt P55085); experiment: Calcium influx in PAR-2-expressing insect cells; assay type: cell-based; conditions: AST 2 units/mL; trypsin, thrombin 0.1 to 10 units/mL; SFLLRNamide, SLIGRL 10 to 100 μM
T2 construct: expressed in transfected cells; host or cells: Sf9 insect cells infected with recombinant baculovirus VL-PAR (pVL1393)
T2 sequence (P55085 26-397): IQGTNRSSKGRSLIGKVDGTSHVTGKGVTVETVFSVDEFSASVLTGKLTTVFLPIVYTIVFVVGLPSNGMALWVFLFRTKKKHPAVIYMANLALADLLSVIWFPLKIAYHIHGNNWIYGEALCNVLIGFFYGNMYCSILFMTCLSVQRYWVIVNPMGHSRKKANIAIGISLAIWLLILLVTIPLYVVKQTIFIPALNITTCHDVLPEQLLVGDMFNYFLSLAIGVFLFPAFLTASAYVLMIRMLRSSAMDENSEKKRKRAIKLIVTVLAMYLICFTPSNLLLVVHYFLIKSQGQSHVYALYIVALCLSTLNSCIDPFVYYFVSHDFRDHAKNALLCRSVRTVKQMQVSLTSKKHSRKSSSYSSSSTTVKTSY
Method: The above-obtained recombinant baculovirus VL-PAR for expressing the PAR was used to infect 1.0×10^7 Sf9 cells sowed on a 75 cm^2 flask at an MOI=2, and was then left and stationally cultured at 27° C. for 40 hours. After the culture, the infected cells were recovered and then subjected to a calcium influx experiment to-confirm the function of the PAR.
The recovered infected cells (about 5×10^6 cells) were once washed with HEPES-Tyrode buffer solution-Ca^2+ (−) pH 7.4, and then suspended in 5 mL of HEPES-Tyrode buffer solution (containing Fura2-AM, 1 μg/mL) to load the Fura2-AM on the cells at 27° C. for 30 minutes. The suspension was centrifuged at 800 rpm at room temperature for 5 minutes to recover the cells. The cells were twice washed with HEPES-Tyrode buffer solution-Ca^2+ (−) pH 7.4 and then resuspended in 5 mL of HEPES-Tyrode buffer solution-Ca^2+ (−) pH 7.4. The cell suspension was mixed with 5 μL of 1M CaCl2 to give a final concentration of 1 mM CaCl2, and then incubated in a shaded state at room temperature for 5 minutes. The prepared Fura2-AM-loaded infected cells were dispensed into a 96 well plate in a volume of 100 μL/well, further subjected to the dispensation of HEPES-Tyrode buffer solution-C^2+ (+) pH 7.4 in a volume of 80 μL/well, and then assayed with a Fluorescence Drug Screening System (made by Hamamatsu Photonics Co.). Namely, [intensity of 500 nm fluorescent light due to 340 nm exciting light]/[intensity of 500 nm fluorescent light due to 380 nm exciting light] (reflecting the concentration of calcium in the cells) was assayed.

[4] = tested on: BEAS-2B; experiment: Calcium influx in airway epithelial cell strain BEAS-2B; assay type: cell-based; conditions: AST 2 units/mL; trypsin 10 to 100 units/mL; SFLLRNamide 100 μM
Method: The Ca^2+ influx due to the AST was examined with respect to an airway epithelial cell strain BEAS-2B. The confluent cells adhered to six 10 cm dishes were used. The cells were peeled with a 10 mM EDTA/HEPES-Tyrode buffer solution for 10 minutes, recovered by a centrifugal treatment at 1,500 rpm at room temperature for 5 minutes, and then resuspended in 10 mL of HEPES-Tyrode buffer solution-Ca^2+ (−) pH 7.4. The recovered cells (about 1.1×10^7 cells) were suspended in 11 mL of HEPES-Tyrode buffer solution (1 μg/mL, containing Fura2-AM) to load the Fura2-AM at 37° C. for 30 minutes. The cells were recovered by a centrifugal treatment at 1,500 rpm at room temperature for 5 minutes, twice washed with HEPES-Tyrode buffer solution-Ca^2+ (−) pH 7.4, and then resuspended in 11 mL of HEPES-Tyrode buffer solution-Ca^2+ (−) pH 7.4. The cell suspension was mixed with […] of 1M CaCl2 to give a final concentration of 1 mM CaCl2, and then incubated in a shaded state at room temperature for 5 minutes. The prepared Fura2-AM-loaded infected cells were dispensed into a 96 well plate in a volume of 100 μL/well, further subjected to the dispensation of HEPES-Tyrode buffer solution-Ca^2+ (+) pH 7.4 in a volume of 80 μL/well, and then assayed with Fluorescence Drug Screening System (Hamamatsu Photonics Co.). […]

Molecule | IC50 [1] | Ca2+ influx [2] | Ca2+ influx [3] | Ca2+ influx [4]
gabexate mesylate | 140 nM |  |  | 
SFLLRNamide [reference compound] |  | observed | observed | observed
N=C(N)c1ccc2cc(OC(=O)c3ccc(N=C(N)N)cc3)ccc2c1 [Nafamostat mesylate, nafamostat mesylate] | 230 nM |  |  | 
